Converted amounts (≈) assume the structure as drawn. “And” between values parts separate entries of the source, which are not always exact repeats. Equal values may be shown once.
Assays:
[1] = test system: Moser human colon; assay: in vitro cytotoxicity assay, Moser; format: cell-based; conditions: 50% inhibition of cell growth; etoposide values (in parentheses) from the same run
Procedure: (§1) The test data involves a cytotoxicity assay versus various murine and human tumors, and in vivo evaluation against P-388 leukemia and B16 melanoma in mice.
(§2) The in vitro cytotoxicity assay involved growing various mammalian tumor cells, including human tumor cells, on microtitre plates employing established tissue culture methods. The concentration of each compound required to inhibit cell growth by 50% (IC50) was then determined by a four-fold serial dilution technique. The validity of the method has been supported by a report published in the "Proceedings of the American Association for Cancer Research", Vol. 25, 328, p. 1891 (1984). Tumor cells of the following types were employed for each compound tested: B16-F10 murine melanoma; Moser human colon; M109 murine lung; and three human colon tumor cell lines namely HCT-116, HCT-VM, and HCT-VP, the latter two being resistant to teniposide (VM) and etoposide (VP). A wide range of IC50 values was observed, and quantitative comparisons amongst test compounds or against the etoposide control values were not possible.

[2] = test system: P-388 murine leukemia; assay: P-388 murine leukemia, in vivo antitumor activity; set-up: species or system CDF1 female mice; Average Weight Change: unit: g; conditions: for Average Weight Change / Maximum Effect % T/C: P-388, i.p.; for effectiveness relative to etoposide (% T/C): P-388, days 5 and 8 protocol
Procedure: The test protocol involved CDF1 female mice implanted intraperitoneally with a tumor inoculum of 10^6 ascites cells of P-388 murine leukemia and treated with various doses of a test compound, or with etoposide. The compounds were administered by intraperitoneal injection on various schedules. Groups of four mice were used for each dosage schedule and amount. A group of ten saline treated control mice was included in each series of experiments, and etoposide treated groups of six were included as a positive control. Thirty one, 47, and 49 day protocols were employed with the mean survival time in days being determined for each group of mice and the number of survivors at the end of the period being noted. The mice were weighed before treatment and again on day 5 or day 6. Mice weighing 20 grams each were employed and a loss in weight of up to approximately 2 grams was not considered excessive. The results are arranged in Table II and were determined in terms of % T/C which is the ratio of the mean survival time of the treated group to the mean survival time of the saline treated control group times 100. The saline treated control animals usually died within nine days. The "maximum effect" in the table is expressed as % T/C and the dose giving that effect is reported. Two different dosage regimens were employed. In one, the first dose of test drug was given on Day 1, the day of tumor inoculation, and second was given on Day 5. In the other, the first dose of test drug was given on Day 5 and a second dose on Day 8. According to the latter protocol, the etoposide control % T/C values are lower than according to the former protocol indicating a more stringent test regimen.

[3] = test system: HCT-VP human colon tumor cell line; assay: in vitro cytotoxicity assay, HCT/VP (etoposide resistant); format: cell-based; conditions: 50% inhibition of cell growth; etoposide values (in parentheses) from the same run
Procedure: as §1, §2

[4] = test system: HCT-VM human colon tumor cell line; assay: in vitro cytotoxicity assay, HCT/VM (teniposide resistant); format: cell-based; conditions: 50% inhibition of cell growth; etoposide values (in parentheses) from the same run
Procedure: as §1, §2

[5] = test system: B16 melanoma; assay: B16 melanoma, in vivo antitumor activity; set-up: species or system BDF1 female mice; conditions: for % T/C: B16 melanoma s.c.
[6] = test system: HCT-116 human colon tumor cell line; assay: in vitro cytotoxicity assay, HCT-116; format: cell-based; conditions: 50% inhibition of cell growth; etoposide values (in parentheses) from the same run
Procedure: as §1, §2

[7] = test system: variety of cancers including small cell lung cancer, non-lymphocytic leukemia, and nonseminomatous testicular cancer; conditions: AMA Drug Evaluations, 5th Edition, 1983; cited from earlier work
[8] = test system: B16-F10 murine melanoma; assay: in vitro cytotoxicity assay, B16-F10; format: cell-based; conditions: 50% inhibition of cell growth, etoposide values (in parentheses) from the same run
Procedure: as §1, §2

[9] = test system: M109 murine lung; assay: in vitro cytotoxicity assay, M109; format: cell-based; conditions: 50% inhibition of cell growth; etoposide values (in parentheses) from the same run
Procedure: as §1, §2

[10] = 120 mg/kg, treatment days 1 and 5
[11] = 40 mg/kg, treatment days 1 and 5
[12] = 60 mg/kg, treatment days 1 and 5
[13] = 60 mg/kg, treatment days 5 and 8
[14] = 200 mg/kg, treatment days 5 and 8
[15] = 160 mg/kg, treatment days 5 and 8

Compound | IC50 Moser [1] | Average Weight Change [2, 10] | Maximum Effect % T/C [2, 10] [% T/C] | IC50 HCT/VP [3] | IC50 HCT/VM [4] | IC50 HCT-116 [6] | activity in the treatment of cancers [7] | IC50 B16-F10 [8] | IC50 M109 [9] | effectiveness relative to etoposide (% T/C) [2] | other results
CCP1(CC)(CC)Oc2cc([C@@H]3c4cc5c(cc4[C@@H](O[C@@H]4O[C@@H]6CO[C@@H](C)O[C@H]6[C@H](O)[C@H]4O)[C@H]4COC(=O)[C@H]34)OCO5)cc(OC)c2O1 [Example 1, ETOPOSIDE-3',4'-DIOXATRIETHYLPHOSPHORANE] | 64 µg/mL and 85 µg/mL | -0.7 | > 544 | 108 µg/mL and 89 µg/mL | 56 µg/mL and 45 µg/mL | 47 µg/mL and 46 µg/mL |  |  |  |  | activity against B16 melanoma (prolongation of survival) ([5]; B16 melanoma implanted subcutaneously, i.p. dosage): active; % T/C ([5]; i.p. dosage, 40 mg/kg): 145%
COc1cc([C@@H]2c3cc4c(cc3[C@@H](O[C@@H]3O[C@@H]5CO[C@@H](C)O[C@H]5[C@H](O)[C@H]3O)[C@H]3COC(=O)[C@H]23)OCO4)cc(OC)c1O [Etoposide, reference compound] | 38 µg/mL and 39 µg/mL |  |  | 30 µg/mL and 41 µg/mL | 6.1 µg/mL and 3.1 µg/mL | 2.1 µg/mL and 2.7 µg/mL | active | 1.9 µg/mL (≈ 3.23 µM) |  |  | IC50 B16-F10 ([8]; listed as etoposide): 9 to 12 µg/mL; Average Weight Change [2, 11]: -1.9; Maximum Effect % T/C [2, 11]: > 450 % T/C; Average Weight Change [2, 12]: -0.4; Maximum Effect % T/C [2, 12]: > 573 % T/C; Average Weight Change [2, 13]: +2.1; Maximum Effect % T/C [2, 13]: 280 % T/C; % T/C ([5]; i.p., 100 mg/kg): > 177
Etoposide-Bis-(2-Chloroethyl)Phosphate, Mixture of 3' and 4'Regioisomers [Example 4] | 84 µg/mL | +0.2 | 150 | 203 µg/mL and 168 µg/mL | 63 µg/mL and 82 µg/mL |  |  | 13.1 µg/mL and 20.7 µg/mL | > 125 µg/mL and 97 µg/mL |  | 
COc1cc([C@@H]2c3cc4c(cc3[C@@H](O[C@@H]3O[C@@H]5CO[C@@H](C)O[C@H]5[C@H](O)[C@H]3O)[C@H]3COC(=O)[C@H]23)OCO4)cc2c1OP(CCC#N)(CCC#N)(CCC#N)O2 [Example 3, Etoposide-3',4'-Dioxa-Tris-(2-Cyanoethyl)Phosphorane] | 105 µg/mL and 79 µg/mL |  |  | 64 µg/mL and 99 µg/mL | 35 µg/mL and 56 µg/mL | 15.6 µg/mL and 14.3 µg/mL |  | 20 µg/mL and 22 µg/mL | 54 µg/mL and 56 µg/mL | Greater effectiveness | Average Weight Change [2, 14]: +3.2; Maximum Effect % T/C [2, 14]: 285 % T/C
COc1cc([C@@H]2c3cc4c(cc3[C@@H](O[C@@H]3O[C@@H]5CO[C@@H](C)O[C@H]5[C@H](O)[C@H]3O)[C@H]3COC(=O)[C@H]23)OCO4)cc2c1OP(C)(CO)(CO)O2 [Example 2] | 74 µg/mL and 70 µg/mL |  |  | 74 µg/mL and 80 µg/mL |  | 9.8 µg/mL and 10.6 µg/mL |  | 21 µg/mL and 30 µg/mL | 76 µg/mL and 71 µg/mL | Greater effectiveness | Average Weight Change [2, 15]: +2.6; Maximum Effect % T/C [2, 15]: 305 % T/C
COc1cc([C@@H]2c3cc4c(cc3[C@@H](O[C@@H]3O[C@@H]5CO[C@@H](c6cccs6)O[C@H]5[C@H](O)[C@H]3O)[C@H]3COC(=O)[C@H]23)OCO4)cc(OC)c1O [Teniposide] |  |  |  |  |  |  | active |  |  |  | 

Reference: US4916217A, “Phosphorus containing derivatives of epipodophyllotoxin” (priority 1987, dated 1990)
